Data published in patent US7696129B2, “Substituted aromatic amide derivative, intermediate thereof, agrohorticultural insecticide containing thereof and method for the use thereof” (Nihon Nohyaku Co., Ltd., priority 2001, dated 2010).

Legend:
Format in all cases: in vivo
[1] = test system: Diamond Back Moth (Plutella xylostella); assay: Test Example 1: insecticidal effect on diamond back moth, immersion of Chinese cabbage seedling with eggs; settings: 50 ppm, seedling with eggs immersed about 30 seconds, 25° C., six days after the immersion
Description: Insecticidal Effect on Diamond Back Moth (Plutella xylostella)
Adult diamond back moths were released and allowed to oviposit on a Chinese cabbage seedling. Two days after the release, the seedling having the eggs deposited thereon was immersed for about 30 seconds in a liquid chemical prepared by diluting a preparation containing each compound listed in Tables 4 to 9 as an active ingredient to adjust the concentration to 50 ppm. After air-dryness, it was allowed to stand in a room thermostatted at 25° C. Six days after the immersion, the hatched insects were counted. The mortality was calculated according to the following equation and the insecticidal effect was judged according to the criterion shown below. The test was carried out with triplicate groups of 10 insects.

[2] = test system: Common Cutworm (Spodoptera litura); assay: Test Example 2: insecticidal effect on common cutworm, cabbage leaf immersion; settings: 50 ppm, cabbage leaf immersed about 30 seconds, second-instar larvae, 25° C., eight days after the inoculation
Description: Insecticidal Effect on Common Cutworm (Spodoptera litura)
A piece of cabbage leaf (cultivar; Shikidori) was immersed for about 30 seconds in a liquid chemical prepared by diluting a preparation containing each compound listed in Tables 4 to 9 as an active ingredient to adjust the concentration to 50 ppm. After air-dryness, it was placed in a plastic Petri dish with a diameter of 9 cm and inoculated with second-instar larvae of common cutworm, after which the dish was closed and then allowed to stand in a room thermostatted at 25° C. Eight days after the inoculation, the dead and alive were counted. The mortality was calculated according to the following equation and the insecticidal effect was judged according to the criterion shown in Test Example 1. The test was carried out with triplicate groups of 10 insects.

[3] = test system: Smaller Tea Tortrix (Adxophyes sp.); assay: Test Example 3: insecticidal effect on smaller tea tortrix, tea leaf immersion; settings: 50 ppm, tea leaves immersed about 30 seconds, larvae, 25° C., humidity 70%, eight days after the inoculation
Procedure: Insecticidal Effect on Smaller Tea Tortrix (Adxophyes sp.)
Tea leaves were immersed for about 30 seconds in a liquid chemical prepared by diluting a preparation containing each compound listed in Tables 1 to 3 as an active ingredient to adjust the concentration to 50 ppm. After air-dryness, the tea leaves were placed in a plastic Petri dish with a diameter of 9 cm and inoculated with larvae of smaller tea tortrix, after which the dish was allowed to stand in a room thermostatted at 25° C. and having a humidity of 70%. Eight days after the inoculation, the dead and alive were counted and the insecticidal effect was judged according to the criterion shown in Test Example 1. The test was carried out with triplicate groups of 10 insects.

SMILES | Test Example 1 (insecticidal effect, mortality criterion) [1] | Test Example 2 (insecticidal effect, mortality criterion) [2] | Test Example 3 (insecticidal effect, mortality criterion) [3]
Cc1cc(C(C(F)(F)F)C(F)(F)F)ccc1NC(=O)c1cccc(C(F)(F)F)c1C(=O)NC(C)(C)CS(C)(=O)=O [5-43] | A (Mortality 100%) | A (Mortality 100%) | A (Mortality 100%)
CCN(CC)C(=O)OCC(C)NC(=O)c1c(C(=O)Nc2ccc(C(C(F)(F)F)C(F)(F)F)cc2C)cccc1C(F)(F)F (stereo not drawn) [5-44] | A (Mortality 100%) | A (Mortality 100%) | A (Mortality 100%)
CSCC(C)(C)NC(=O)c1c(C(=O)Nc2ccc(C(C(F)(F)F)C(F)(F)F)cc2C)ccc(Cl)c1Cl [5-45] | A (Mortality 100%) | A (Mortality 100%) | A (Mortality 100%)
CCc1cc(C(C(F)(F)F)C(F)(F)F)ccc1NC(=O)c1cccc(I)c1C(=O)NC(C)C [5-46] | A (Mortality 100%) | A (Mortality 100%) | A (Mortality 100%)
CCc1cc(C(C(F)(F)F)C(F)(F)F)ccc1NC(=O)c1cccc(I)c1C(=O)NC(C)(C)CSC [5-47] | A (Mortality 100%) | A (Mortality 100%) | A (Mortality 100%)
CSCC(C)(C)NC(=O)c1c(I)cccc1C(=O)Nc1ccc(C(C(F)(F)F)C(F)(F)F)cc1C(C)(C)C [5-48] | A (Mortality 100%) | E (Mortality 49% or less) | E (Mortality 49% or less)
C[S+]([O-])CC(C)(C)NC(=O)c1c(I)cccc1C(=O)Nc1ccc(C(C(F)(F)F)C(F)(F)F)cc1C(C)(C)C (stereo not drawn) [5-49] | A (Mortality 100%) | E (Mortality 49% or less) | E (Mortality 49% or less)
CC(C)NC(=O)c1c(I)cccc1C(=O)Nc1ccc(C(C(F)(F)F)C(F)(F)F)cc1F [5-50] | A (Mortality 100%) | A (Mortality 100%) | A (Mortality 100%)
CC(C)NC(=O)c1c(I)cccc1C(=O)Nc1ccc(C(C(F)(F)F)C(F)(F)F)cc1Cl [5-51] | A (Mortality 100%) | A (Mortality 100%) | A (Mortality 100%)
CSCC(C)(C)NC(=O)c1c(I)cccc1C(=O)Nc1ccc(C(C(F)(F)F)C(F)(F)F)cc1Cl [5-52] | A (Mortality 100%) | A (Mortality 100%) | A (Mortality 100%)
CSCC(C)(C)NC(=O)c1c(I)cccc1C(=O)Nc1ccc(C(C(F)(F)F)C(F)(F)F)cc1Br [5-53] | A (Mortality 100%) | A (Mortality 100%) | A (Mortality 100%)
C[S+]([O-])CC(C)(C)NC(=O)c1c(I)cccc1C(=O)Nc1ccc(C(C(F)(F)F)C(F)(F)F)cc1Br (stereo not drawn) [5-54] | A (Mortality 100%) | A (Mortality 100%) | A (Mortality 100%)
CSCC(C)(C)NC(=O)c1c(I)cccc1C(=O)Nc1ccc(C(C(F)(F)F)C(F)(F)F)cc1I [5-55] | A (Mortality 100%) | A (Mortality 100%) | A (Mortality 100%)
C[S+]([O-])CC(C)(C)NC(=O)c1c(I)cccc1C(=O)Nc1ccc(C(C(F)(F)F)C(F)(F)F)cc1I (stereo not drawn) [5-56] | A (Mortality 100%) | C (Mortality 89-80%) | A (Mortality 100%)
CSCC(C)(C)NC(=O)c1c(I)cccc1C(=O)Nc1ccc(C(C(F)(F)F)C(F)(F)F)cc1C#N [5-57] | A (Mortality 100%) | A (Mortality 100%) | A (Mortality 100%)
C[S+]([O-])CC(C)(C)NC(=O)c1c(I)cccc1C(=O)Nc1ccc(C(C(F)(F)F)C(F)(F)F)cc1C#N (stereo not drawn) [5-58] | A (Mortality 100%) | A (Mortality 100%) | A (Mortality 100%)
CC(C)(CS(C)(=O)=O)NC(=O)c1c(I)cccc1C(=O)Nc1ccc(C(C(F)(F)F)C(F)(F)F)cc1C#N [5-59] | A (Mortality 100%) | A (Mortality 100%) | A (Mortality 100%)
Cc1c(NC(=O)c2cccc(I)c2C(=O)NC(C)C)ccc(C(C(F)(F)F)C(F)(F)F)c1F [5-60] | A (Mortality 100%) | A (Mortality 100%) | A (Mortality 100%)
CSCC(C)(C)NC(=O)c1c(I)cccc1C(=O)Nc1ccc(C(C(F)(F)F)C(F)(F)F)c(F)c1C [5-61] | A (Mortality 100%) | A (Mortality 100%) | A (Mortality 100%)
Cc1cc(C(C(F)(F)F)C(F)(F)F)c(F)cc1NC(=O)c1cccc(I)c1C(=O)NC(C)C [5-62] | A (Mortality 100%) | A (Mortality 100%) | A (Mortality 100%)
CSCC(C)(C)NC(=O)c1c(I)cccc1C(=O)Nc1cc(F)c(C(C(F)(F)F)C(F)(F)F)cc1C [5-63] | A (Mortality 100%) | A (Mortality 100%) | A (Mortality 100%)
CSCC(C)(C)NC(=O)c1c(I)cccc1C(=O)Nc1ccc(C(C(F)(F)F)C(F)(F)F)c(Cl)c1C [5-66] | A (Mortality 100%) | A (Mortality 100%) | A (Mortality 100%)
Cc1cc(C(C(F)(F)F)C(F)(F)F)cc(C)c1NC(=O)c1cccc(I)c1C(=O)NC(C)C [5-67] | A (Mortality 100%) | E (Mortality 49% or less) | A (Mortality 100%)
CSCC(C)(C)NC(=O)c1c(I)cccc1C(=O)Nc1c(C)cc(C(C(F)(F)F)C(F)(F)F)cc1C [5-68] | A (Mortality 100%) | E (Mortality 49% or less) | E (Mortality 49% or less)
CSCC(C)(C)NC(=O)c1c(I)cccc1C(=O)Nc1ccc(C(C(F)(F)F)C(F)(F)F)c(OC(C)C)c1 [5-70] | A (Mortality 100%) | E (Mortality 49% or less) | E (Mortality 49% or less)
CSCC(C)(C)NC(=O)c1c(I)cccc1C(=O)Nc1ccc(C(C(F)(F)F)C(F)(F)C(F)(F)F)cc1C (stereo not drawn) [5-71] | A (Mortality 100%) | A (Mortality 100%) | A (Mortality 100%)
CCN(CC)C(=O)c1c(I)cccc1C(=O)Nc1ccc(C(C(F)(F)F)C(F)(F)F)cc1C [6-1] | A (Mortality 100%) | A (Mortality 100%) | A (Mortality 100%)
Cc1cc(C(C(F)(F)F)C(F)(F)F)ccc1N(C)C(=O)c1cccc(I)c1C(=O)NC(C)C [6-2] | A (Mortality 100%) | E (Mortality 49% or less) | A (Mortality 100%)
CSCC(C)(C)NC(=O)c1c(I)cccc1C(=O)N(C)c1ccc(C(C(F)(F)F)C(F)(F)F)cc1C [6-3] | A (Mortality 100%) | A (Mortality 100%) | A (Mortality 100%)
